Source: patent US8349297B2, “Topical formulations” (Medpharm Limited, priority 2005, dated 2013)
Values belong to the compound of their own block, whether it stands above or below them.

Key:
[1] = Phase diagram construction with visual solubility assessment
Description: Formulations were prepared by the sequential weighing of the drug followed by the remaining excipients into a 10 mL PET glass coated canister. A magnetic stirrer bar was added and the formulations were crimped with a 100 μL valve. The formulations were allowed to shake for approximately 16 h at room temperature prior to the addition of HFA, and then shaken for a further 8 h prior to visual solubility assessment.

[2] = Solubility studies in PET canisters (clarity observed, ternary phase plot); format: physicochemical
Description: Solubility studies were conducted in clear, PET canisters. Stir bars were added to the canister and the canister was tared on an analytical balance. […] Lids were placed on the canisters and crimped. The solutions were left to stir overnight. […] All percentages are based on weight/weight calculations.

[3] = Stability of BMV in the skin permeation system; format: physicochemical; settings: at both 4° C. and 37° C.
Description: Stratum corneum was isolated from a frozen human skin sample using standard protocol. The prepared skin was mounted on a filter support and placed on the receiver section of an upright Franz cell. The donor compartment was then fixed on top of the receiver compartment and secured using Parafilm. A magnetic flea and thermostatically regulated receiver fluid (90:10 Acetate Buffer pH=4.5:EtOH) were added to each Franz cell. These cells were placed in a bath at 37° C. and allowed to equilibrate and after a few hours a blank sample was taken from each cell. The integrity of each cell was determined via inversion and an appropriate amount of formulation was applied to the donor chamber of the Franz cell. […] Samples were held at room temperature until HPLC analysis.

- drug level at which a saturated system could be formed ([1]; 83% HFA, ethanol level varied, co-povidone S-630): 2%
Structure (SMILES): O=C(O)c1ccccc1O [salicylic acid]

- PVP level at which the drug becomes insoluble [2]: around 3 % PVP
- maximum solubility [2]: 1-1.2%
- time for which BMV was shown to be stable in the system [3]: up to 72 h
Structure (SMILES): CCCCC(=O)O[C@]1(C(=O)CO)[C@@H](C)C[C@H]2[C@@H]3CCC4=CC(=O)C=C[C@]4(C)[C@@]3(F)[C@@H](O)C[C@@]21C [BMV, betamethasone valerate]

Structure (SMILES): O=C(OOC(=O)c1ccccc1)c1ccccc1 [BPO, Benzoyl peroxide]
- drug level at which a saturated system could be formed ([1]; 10% ethanol, PVP K90): 1%
